{"source": "paper PMC8841457", "about": "(Clinical and Translational Science, 2021)", "key": {"[1]": {"system": "healthy recreational polydrug users", "assay": "Global retrospective assessments at 8 h postdose", "details": "pentazocine 0.5 mg/kg i.v."}, "[2]": {"system": "healthy recreational polydrug users", "assay": "Drug effect questionnaire", "details": "pentazocine 0.5 mg/kg and difelikefalin 5 and 15 mcg/kg i.v.; unipolar 0-100 VAS"}, "[3]": {"system": "healthy recreational polydrug users", "assay": "Pupillometry", "format": "in vivo, human", "details": "pentazocine 0.5 mg/kg i.v.; 8-h postdose period"}, "[4]": {"system": "healthy recreational polydrug users", "assay": "Drug Similarity VAS at 8 h postdose", "format": "in vivo, human", "details": "pentazocine 0.5 mg/kg i.v."}, "[5]": {"system": "healthy recreational polydrug users", "assay": "Treatment-emergent adverse events", "format": "in vivo, human", "details": "pentazocine 0.5 mg/kg single i.v., n = 40; safety population"}, "[6]": {"assay": "Plasma pharmacokinetics after single i.v. dose", "details": "pentazocine 0.5 mg/kg single i.v., n = 40"}, "[7]": {"system": "healthy recreational polydrug users", "assay": "Drug Liking VAS, human abuse potential study", "format": "in vivo", "details": "for Drug Liking VAS Emax LS mean difference: mixed-effect model"}}, "data": [{"smiles": "CC(C)=CCN1CCC2(C)c3cc(O)ccc3CC1C2C", "note": "(centres unmarked) [Pentazocine, pentazocine]", "values": [{"measurement": "PVAQ median value", "setting": "[1]; 8 h postdose", "value": "10.00 $"}, {"measurement": "PVAQ mean value", "setting": "[1]; 8 h postdose, $0-$100 scale", "value": "9.60 $"}, {"measurement": "Mean 8-h score, Overall Drug Liking VAS", "setting": "[1]; bipolar VAS, 50 neutral", "value": "greater than or equal to 69 points"}, {"measurement": "Mean 8-h score, Take Drug Again VAS", "setting": "[1]; bipolar VAS, 50 neutral", "value": "greater than or equal to 69 points"}, {"measurement": "Bad Effects VAS Emax, scores overall", "setting": "[2]", "value": "< 20", "unit": "points"}, {"measurement": "mean Emax reduction in pupil diameter from baseline (predose)", "setting": "[3]", "value": 2.5, "unit": "mm"}, {"measurement": "Drug Similarity VAS, median, cannabinoids, hallucinogens, or stimulants", "setting": "[4]; unipolar 0-100", "value": "≤ 2.0"}, {"measurement": "Drug Similarity VAS, median, benzodiazepines", "setting": "[4]; unipolar 0-100, n=8", "value": 22.5}, {"measurement": "Drug Similarity VAS, median, opioids", "setting": "[4]; unipolar 0-100, n=38", "value": 65.0}, {"measurement": "Any TEAE, subjects", "setting": "[5]", "value": "13 (32.5) n (%)"}, {"measurement": "Any serious TEAE, subjects", "setting": "[5]", "value": "0 n (%)"}, {"measurement": "Any severe TEAE, subjects", "setting": "[5]", "value": "0 n (%)"}, {"measurement": "Discontinuation due to TEAE, subjects", "setting": "[5]", "value": "1 (2.5) n (%)"}, {"measurement": "TEAE Abdominal pain upper, subjects", "setting": "[5]", "value": "0 n (%)"}, {"measurement": "TEAE Abdominal pain, subjects", "setting": "[5]", "value": "0 n (%)"}, {"measurement": "TEAE Chills, subjects", "setting": "[5]", "value": "2 (5.0) n (%)"}, {"measurement": "TEAE Constipation, subjects", "setting": "[5]", "value": "1 (2.5) n (%)"}, {"measurement": "TEAE Dizziness, subjects", "setting": "[5]", "value": "2 (5.0) n (%)"}, {"measurement": "TEAE Dyspepsia, subjects", "setting": "[5]", "value": "0 n (%)"}, {"measurement": "TEAE Groin pain, subjects", "setting": "[5]", "value": "0 n (%)"}, {"measurement": "TEAE Headache, subjects", "setting": "[5]", "value": "4 (10.0) n (%)"}, {"measurement": "TEAE Hot flush, subjects", "setting": "[5]", "value": "3 (7.5) n (%)"}, {"measurement": "TEAE Hypoesthesia, subjects", "setting": "[5]", "value": "1 (2.5) n (%)"}, {"measurement": "TEAE Nausea, subjects", "setting": "[5]", "value": "5 (12.5) n (%)"}, {"measurement": "TEAE Vomiting, subjects", "setting": "[5]", "value": "5 (12.5) n (%)"}, {"measurement": "Cmax", "setting": "[6]; human plasma, tandem MS, mean (SD)", "value": "296.0 (197.7) ng/ml"}, {"measurement": "AUC0-t", "setting": "[6]; mean (SD)", "value": "487.4 (133.5) h*ng/ml"}, {"measurement": "V d", "setting": "[6]; mean (SD)", "value": "4280 (1079.8) ml/kg"}, {"measurement": "t 1/2", "setting": "[6]; mean (SD)", "value": "3.7 (1.2) h"}, {"measurement": "Tmax", "setting": "[6]; median [range]", "value": "0.1 [0.1, 0.8] h"}, {"measurement": "Drug Liking VAS Emax LS mean difference", "setting": "[7]; pentazocine 0.5 mg/kg i.v. vs difelikefalin 5 mcg/kg i.v., completer set N = 39", "value": 21.95}, {"measurement": "Drug Liking VAS Emax LS mean difference", "setting": "[7]; pentazocine 0.5 mg/kg i.v. vs difelikefalin 15 mcg/kg i.v., completer set N = 39", "value": 20.92}, {"measurement": "Drug Liking VAS Emax LS mean difference", "setting": "[7]; pentazocine 0.5 mg/kg i.v. vs placebo, completer set N = 39", "value": 35.50}, {"measurement": "Mean Drug Liking VAS scores", "setting": "[7]; pentazocine 0.5 mg/kg i.v., over the first 3 h", "value": "> 60", "unit": "points"}, {"measurement": "Drug Liking VAS Emax, median (min, max)", "setting": "[7]; pentazocine 0.5 mg/kg single i.v., completer set N = 39", "value": "91.0 (49, 100)"}]}]}
